The target of one assay is Human plasma kallikrein (Homo sapiens (Human), UniProt P03952). In words: Kallikrein Assay (fluorogenic substrate Acetyl-K-P-R-AFC). The note with it: Plasma Kallikrein (PKal). Format: biochemical. In outline: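 Ki is derived from IC50 with the Cheng-Prusoff equation, and IC50 from the inflection point of a four-parameter logistic curve. The rate of AFC release is read with 0.5 nM purified enzyme and […] substrate at room temperature or 37 °C.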

The target of the next assay is human Factor XIa (Homo sapiens (Human), UniProt P03951). The experiment in a line: Factor XIa Assay (fluorogenic substrate GPR-AFC). Format: biochemical. The note with it: Factor XIa (FXIa).
human Factor XIa, sequence (P03951 388-625 limits assumed): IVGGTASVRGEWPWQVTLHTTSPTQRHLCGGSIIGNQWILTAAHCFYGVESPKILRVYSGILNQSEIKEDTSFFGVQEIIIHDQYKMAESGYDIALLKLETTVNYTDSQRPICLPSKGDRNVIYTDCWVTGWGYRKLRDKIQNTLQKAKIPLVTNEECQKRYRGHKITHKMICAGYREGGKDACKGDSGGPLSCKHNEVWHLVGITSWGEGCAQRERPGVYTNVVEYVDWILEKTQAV
human Factor XIa, sequence (P03951 19-387 partner limits assumed): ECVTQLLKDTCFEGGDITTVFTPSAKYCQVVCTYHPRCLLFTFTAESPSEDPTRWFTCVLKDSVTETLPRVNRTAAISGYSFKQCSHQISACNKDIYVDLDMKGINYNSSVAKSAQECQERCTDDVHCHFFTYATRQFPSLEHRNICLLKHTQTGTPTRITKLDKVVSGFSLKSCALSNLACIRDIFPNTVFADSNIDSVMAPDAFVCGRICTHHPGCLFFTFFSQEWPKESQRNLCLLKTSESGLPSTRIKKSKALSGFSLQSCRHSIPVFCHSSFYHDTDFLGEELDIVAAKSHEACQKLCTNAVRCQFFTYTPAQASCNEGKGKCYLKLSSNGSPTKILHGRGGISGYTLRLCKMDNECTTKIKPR

What is called IC50 is the midpoint of a concentration-inhibition curve. Higher therefore signals weaker potency in that assay.

Human plasma kallikrein, sequence (P03952 391-638): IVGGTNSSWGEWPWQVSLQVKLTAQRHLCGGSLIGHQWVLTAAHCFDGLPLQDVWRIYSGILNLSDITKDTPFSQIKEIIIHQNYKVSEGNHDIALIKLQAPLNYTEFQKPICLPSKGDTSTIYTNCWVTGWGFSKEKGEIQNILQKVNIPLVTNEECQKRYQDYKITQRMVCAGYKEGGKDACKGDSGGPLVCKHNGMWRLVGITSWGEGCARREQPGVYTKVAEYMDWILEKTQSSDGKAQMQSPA
Human plasma kallikrein, sequence (P03952 20-390 partner): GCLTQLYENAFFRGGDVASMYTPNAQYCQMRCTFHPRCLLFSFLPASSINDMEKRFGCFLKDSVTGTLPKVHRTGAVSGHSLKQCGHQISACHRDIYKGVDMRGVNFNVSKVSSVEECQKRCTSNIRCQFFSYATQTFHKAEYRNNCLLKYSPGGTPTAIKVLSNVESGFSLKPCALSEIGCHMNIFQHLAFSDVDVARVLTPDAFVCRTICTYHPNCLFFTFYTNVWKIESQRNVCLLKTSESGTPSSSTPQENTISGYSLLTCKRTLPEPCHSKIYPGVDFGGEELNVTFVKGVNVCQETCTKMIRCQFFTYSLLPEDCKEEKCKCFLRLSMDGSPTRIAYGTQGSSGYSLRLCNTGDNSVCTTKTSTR

Consider `C[C@@H](c1cnc(N2C[C@H]3C[C@H]3C2=O)nc1)n1cc(NC(=O)c2nc(-c3c(C(F)F)ccc(Cl)c3F)cnc2C(O)C(F)(F)F)cn1` (single isomer, unassigned) [Example 177, 6-(3-Chloro-6-(difluoromethyl)-2-fluorophenyl)-N-(1-((S)-1-(2-((1R,5S)-2-oxo-3-azabicyclo[3.1.0]hexan-3-yl)pyrimidin-5-yl)ethyl)-1H-pyrazol-4-yl)-3-((R or S)-2,2,2-trifluoro-1-hydroxyethyl)pyrazine-2-carboxamide], for which the half-inhibitory concentration (IC50) on Human plasma kallikrein was 0.0478 µM; at human Factor XIa, above 10 µM.

`[2H]C1([2H])C2CC2C(=O)N1c1ncc([C@H](C)n2cc(NC(=O)c3nc(-c4c(C(F)F)ccc(Cl)c4F)cnc3C)cn2)c(C)n1` (single isomer, unassigned) [Example 178, 6-(3-Chloro-6-(difluoromethyl)-2-fluorophenyl)-3-methyl-N-(1-((S)-1-(4-methyl-2-((1R,5S or 1S,5R)-2-oxo-3-azabicyclo[3.1.0]hexan-3-yl-4,4-d2)pyrimidin-5-yl)ethyl)-1H-pyrazol-4-yl)pyrazine-2-carboxamide]: the IC50 came to 0.0142 µM at Human plasma kallikrein and 4.53 µM against human Factor XIa.

For `[2H]C1([2H])C2CC2C(=O)N1c1ncc([C@H](C)n2cc(NC(=O)c3nc(-c4c(C(F)F)ccc(Cl)c4F)cnc3C)cn2)c(C)n1` (single isomer, unassigned) [Example 179, 6-(3-Chloro-6-(difluoromethyl)-2-fluorophenyl)-3-methyl-N-(1-((S)-1-(4-methyl-2-((1S,5R or 1R,5S)-2-oxo-3-azabicyclo[3.1.0]hexan-3-yl-4,4-d2)pyrimidin-5-yl)ethyl)-1H-pyrazol-4-yl)pyrazine-2-carboxamide], the IC50 worked out at 0.0007 µM against Human plasma kallikrein and 1.82 µM against human Factor XIa.

For the compound `Cc1nc(N2C[C@H]3C[C@H]3C2=O)ncc1C(C)n1cc(NC(=O)c2nc(-c3c(C(F)F)ccc(Cl)c3F)cnc2CO)cn1` (single isomer, unassigned) [Example 194, 6-(3-Chloro-6-(difluoromethyl)-2-fluorophenyl)-3-(hydroxymethyl)-N-(1-((S or R)-1-(4-methyl-2-((1R,5S)-2-oxo-3-azabicyclo[3.1.0]hexan-3-yl)pyrimidin-5-yl)ethyl)-1H-pyrazol-4-yl)pyrazine-2-carboxamide], the half-inhibitory concentration (IC50) on Human plasma kallikrein is 0.0005 µM; on human Factor XIa it was 0.262 µM.

Take `Cc1nc(N2C[C@H]3C[C@H]3C2=O)ncc1C(C)n1cc(NC(=O)c2nc(-c3c(C(F)F)ccc(Cl)c3F)cnc2CO)cn1` (single isomer, unassigned) [Example 195, 6-(3-Chloro-6-(difluoromethyl)-2-fluorophenyl)-3-(hydroxymethyl)-N-(1-((R or S)-1-(4-methyl-2-((1R,5S)-2-oxo-3-azabicyclo[3.1.0]hexan-3-yl)pyrimidin-5-yl)ethyl)-1H-pyrazol-4-yl)pyrazine-2-carboxamide]: the half-inhibitory concentration (IC50) against Human plasma kallikrein is 0.0182 µM; at human Factor XIa, 0.765 µM.

For the compound `Cc1nc(C(C)n2cc(NC(=O)c3nc(-c4c(C(F)F)ccc(Cl)c4F)cnc3CO)cn2)cnc1N1C[C@H]2C[C@H]2C1=O` (single isomer, unassigned) [Example 197, 6-(3-Chloro-6-(difluoromethyl)-2-fluorophenyl)-3-(hydroxymethyl)-N-(1-((S or R)-1-(6-methyl-5-((1R,5S)-2-oxo-3-azabicyclo[3.1.0]hexan-3-yl)pyrazin-2-yl)ethyl)-1H-pyrazol-4-yl)pyrazine-2-carboxamide], the IC50 is 0.0002 µM against Human plasma kallikrein and 0.048 µM against human Factor XIa.

Take `Cc1nc(C(C)n2cc(NC(=O)c3nc(-c4c(C(F)F)ccc(Cl)c4F)cnc3CO)cn2)cnc1N1C[C@H]2C[C@H]2C1=O` (single isomer, unassigned) [Example 198, 6-(3-Chloro-6-(difluoromethyl)-2-fluorophenyl)-3-(hydroxymethyl-N-(1-((R or S)-I-(6-methyl-5-((1R,5S)-2-oxo-3-azabicyclo[3.1.0]hexan-3-yl)pyrazin-2-yl)ethyl)-1H-pyrazol-4-yl)pyrazine-2-carboxamide]: the IC50 at Human plasma kallikrein turned out to be 0.0001 µM; on human Factor XIa it was 0.11 µM.

As for `Cc1c(C(C)n2cc(NC(=O)c3nc(-c4c(C(F)F)ccc(Cl)c4F)cnc3CO)cn2)cnc(N2C[C@H]3C[C@H]3C2=O)c1C` (single isomer, unassigned) [Example 201, 6-(3-Chloro-6-(difluoromethyl)-2-fluorophenyl)-N-(1-((S or R)-1-(4,5-dimethyl-6-((1R,5S)-2-oxo-3-azabicyclo[3.1.0]hexan-3-yl)pyridin-3-yl)ethyl)-1H-pyrazol-4-yl)-3-(hydroxymethyl)pyrazine-2-carboxamide], the results for the IC50 against Human plasma kallikrein and against human Factor XIa were 0.0004 µM and 0.052 µM, respectively.

As for `Cc1c(C(C)n2cc(NC(=O)c3nc(-c4c(C(F)F)ccc(Cl)c4F)cnc3CO)cn2)cnc(N2C[C@H]3C[C@H]3C2=O)c1C` (single isomer, unassigned) [Example 202, 6-(3-Chloro-6-(difluoromethyl)-2-fluorophenyl)-N-(1-((R or S)-1-(4,5-dimethyl-6-((1R,5S)-2-oxo-3-azabicyclo[3.1.0]hexan-3-yl)pyridin-3-yl)ethyl)-1H-pyrazol-4-yl)-3-(hydroxymethyl)pyrazine-2-carboxamide], the IC50 against Human plasma kallikrein was found to be 0.0003 µM; against human Factor XIa it was 0.011 µM.

Turning to `Cc1cc(N2C[C@H]3C[C@H]3C2=O)ncc1C(C)n1cc(NC(=O)c2nc(-c3c(C(F)F)ccc(Cl)c3F)cnc2CO)cn1` (single isomer, unassigned) [Example 203, 6-(3-Chloro-6-(difluoromethyl)-2-fluorophenyl)-3-(hydroxymethyl)-N-(1-((S or R)-1-(4-methyl-6-((1R,5S)-2-oxo-3-azabicyclo[3.1.0]hexan-3-yl)pyridin-3-yl)ethyl)-1H-pyrazol-4-yl)pyrazine-2-carboxamide], the IC50 was 0.0003 µM against Human plasma kallikrein and 0.282 µM against human Factor XIa.

Regarding `Cc1cc(N2C[C@H]3C[C@H]3C2=O)ncc1C(C)n1cc(NC(=O)c2nc(-c3c(C(F)F)ccc(Cl)c3F)cnc2CO)cn1` (single isomer, unassigned) [Example 204, 6-(3-Chloro-6-(difluoromethyl)-2-fluorophenyl)-3-(hydroxymethyl)-N-(1-((R or S)-1-(4-methyl-6-((1R,5S)-2-oxo-3-azabicyclo[3.1.0]hexan-3-yl)pyridin-3-yl)ethyl)-1H-pyrazol-4-yl)pyrazine-2-carboxamide], the IC50 at Human plasma kallikrein was found to be 0.0059 µM; at human Factor XIa, 2.52 µM.

Consider `CC(c1cnc(N2C[C@H]3C[C@H]3C2=O)c(F)c1)n1cc(NC(=O)c2nc(-c3c(C(F)F)ccc(Cl)c3F)cnc2CO)cn1` (single isomer, unassigned) [Example 205, 6-(3-Chloro-6-(difluoromethyl)-2-fluorophenyl)-N-(1-((S or R)-1-(5-fluoro-6-((1R,5S)-2-oxo-3-azabicyclo[3.1.0]hexan-3-yl)pyridin-3-yl)ethyl)-1H-pyrazol-4-yl)-3-(hydroxymethyl)pyrazine-2-carboxamide], for which the concentration for half-maximal inhibition (IC50) against Human plasma kallikrein came to 0.0003 µM; against human Factor XIa it was 0.389 µM.

Turning to `CC(c1cnc(N2C[C@H]3C[C@H]3C2=O)c(F)c1)n1cc(NC(=O)c2nc(-c3c(C(F)F)ccc(Cl)c3F)cnc2CO)cn1` (single isomer, unassigned) [Example 206, 6-(3-Chloro-6-(difluoromethyl)-2-fluorophenyl)-N-(1-((R or S)-1-(5-fluoro-6-((1R,5S)-2-oxo-3-azabicyclo[3.1.0]hexan-3-yl)pyridin-3-yl)ethyl)-1H-pyrazol-4-yl)-3-(hydroxymethyl)pyrazine-2-carboxamide], the IC50 at Human plasma kallikrein was 0.0003 µM; against human Factor XIa, 0.12 µM.

Values taken from patent publication US20230286958A1, “PLASMA KALLIKREIN INHIBITORS” (Merck Sharp & Dohme LLC, priority 2020, published 2023).
